How the values were obtained:
Human primary B cells = assay: B cell activation with IL-21, sCD40L, CpG and anti-IgM; format: cell-based; conditions: for B cell activation (formation of plasma cells, proliferation, release of IgGs) / Cell viability (zombie staining): activated B cells, 5 days; for Effect on the release of inflammatory markers, B Cells: summary table
Method: B cells were activated as described by Khoenkhoen et al.. […].
Surface marker analysis was performed as described previously. Briefly, 1.5–2 × 10^5 cells of each sample were blocked with human FcR Blocking Reagent (15 min, 4 °C). […]. Afterwards, samples were stained with a mixture of different surface marker antibodies (15 min, 4 °C) and measured with MACSQuant® Analyzer 10 flow cytometer. For M1-/M2-MdMs anti-CD86, anti-CD14, anti-HLA-DR, anti-CD206, anti-CD80, anti-TREM2 and anti-CD163 were used. For T cells, anti-CD69, anti-CD54, anti-CD49a, anti-CD18, anti-CD134, anti-CD154, anti-CD3 and anti-CD25 were analyzed. For B cells, anti-CD27, anti-CD19 and anti-CD38 were applied. For T cell and B cell proliferation assay, freshly isolated T and B cells were stained with CTV and detected using flow cytometry. Naïve B cells were characterized as CD19^+CD27^lowCD38^med, memory B cells as CD19^+CD27^med CD38^low and plasma cells as CD27^+CD38^+ cells. M1 MdMs and M2 MdMs cell population was gated using FSC/SSC channel. T cells were gated as CD3^+CD25^+ positive cells. The geometric mean of the fluorescent intensity was calculated using FlowJo software v10 (Treestar, Ashland, […], USA). Fold induction of surface marker expression was calculated using the DMSO-treated cells as the control.
For determination of cytokine concentrations in the supernatant of humane immune cells, cytometric bead array (BD Biosciences, Heidelberg, Germany) for IL-10, IL-17, IL-8, IL-6, IFN-γ and CCL2 was used. For the detection of CCL18, CCL17, IgG, IgA and PGE2, an ELISA was performed. The cytometric bead arrays and the ELISAs were performed according to the protocol of the supplier.

M1 MdMs = assay: Energy metabolism (Seahorse OCR/ECAR) in M1 MdMs; format: cell-based, human; conditions: 48 h, 0.5-5 nM
Method: (§1) The determination of the energy metabolism was performed as described previously. Briefly, for the analysis of the extracellular acidification rate (ECAR) and the oxygen consumption rate (OCR) for human B cells, Tcells, M1 MdMs and M2 MdMs, the Seahorse XFe96 FluxPak (Agilent, Waldbronn, Germany) was used as recommended by the manufacturer. MdMs were polarized to M1 or M2 MdMs in the presence of PatA (0.5, 2.5, 5 nM), DMDA (0.5, 2.5, 5 nM) or vehicle (DMSO) for 48 h or 24 h, respectively. T cells were activated in the presence of PatA (0.25, 0.5 nM), DMDA (0.25, 0.5 nM), silvestrol or DMSO. B cells were activated in the presence of PatA (0.25, 0.5 nM), DMDA (0.25, 0.5 nM), silvestrol (5 nM) or rapamycin (10 ng/mL positive control). Cells were washed with Seahorse XF RPMI medium pH 7.4 (Agilent, Waldbronn, Germany) and OCR and ECAR were measured as octuplicates for a period of 160 min using the Seahorse XFe96 Analyzer (Agilent, Waldbronn, Germany) and analyzed by Wave Software 2.6.3.8 (Agilent, Waldbronn, Germany). The relative values were calculated by relating the OCR or ECAR values obtained after 50 min to the values of the vehicle control (not stimulated).

M2 MdMs = assay: Energy metabolism (Seahorse OCR/ECAR) in M2 MdMs; format: cell-based, human; conditions: 24 h, 0.5-5 nM
Method: as §1

[1] = tested on: Salmonella typhimurium strain TA100; assay: Ames MPF test, strain TA100; format: cell-based; conditions: TA100, with and without S9, 10-250 nM
Method: The Ames MPF 98/100 test (Xenometrix, Allschwil, Switzerland) was performed as recommended by the supplier and recently published. Briefly, two bacteria strains incapable of producing histidine (Salmonella typhimurium strains TA98 and TA100) were used. Liver homogenate S9 was applied to simulate the metabolic conversions of PatA and DMDA. After exposure to increasing concentrations of PatA (0, 10, 50, 250 nM), DMDA (0, 10, 50, 250 nM) or with positive controls (2 μg/mL for 2-NF (TA98), 2.5 μg/mL for 4-NQO (TA100), 63 μg/mL (TA100 with SF9) and 25 µg/mL (TA98 with SF9) for 2-AA), the cultures were diluted in pH indicator medium lacking histidine and incubated for two days. Cells that had undergone reversion to amino acid prototrophy grew into colonies and bacterial metabolism reduced the pH of the medium, changing the color of that well. Revertant colony numbers of each well were counted and related to the negative control (DMSO). The experiment was conducted once in triplicate. The Ames MPF calculation sheet provided by Xenometrix was used for data analysis. Fold induction over the baseline was calculated as the ratio of the mean number of positive wells to the baseline. The baseline was obtained by adding one standard deviation to the mean number of positive wells of the solvent control. Compounds with mutagenic potential were characterized by revertant numbers above the baseline.

Calu-3 cell barrier = assay: Transport assay, Calu-3 cell barrier; format: in vitro ADME; conditions: for Permeability / transport rate across Calu-3 cell barrier (in words): 4 and 24 h, PatA, DMDA 5, 50, 100 nM, controls 200 µM
Method: The transport assay was achieved as described previously. Briefly, 1 × 10^5 CaCo-2 or 5 × 10^4 Calu-3 cells in 300 µL medium were seeded on 24-well ThinCerts (pre-coated with FCS for 60 min) and in the lower compartment, 1 mL culture medium per well was added. The Caco-2 cell barrier was generated over 20 days and the Calu-3 barrier was generated over 14 days. DMDA (0 nM, 5 nM, 50 nM, 100 nM), PatA (0 nM, 5 nM, 50 nM, 100 nM), 200 µM famotidine, 200 µM lucifer yellow or 200 µM carbamazepine diluted in medium was added to the apical compartment and incubated for 4 h or 24 h. The medium from the basolateral and apical compartment was collected and stored at −20 °C and analyzed using LC-MS/MS. To obtain the transport rate, the drug amount in the basolateral compartment at 4 h or 24 h was related to the drug amount in the apical compartment (0 h).
The detailed method for the analysis of DMDA, PatA, carbamazepine and famotidine using LC-MS/MS is described in the Supplementary Materials.

| Structure (SMILES) | B cell activation (formation of plasma cells, proliferation, release of IgGs) (Human primary B cells) | Cell viability (zombie staining) (Human primary B cells) | Effect on the release of inflammatory markers, B Cells (Human primary B cells) | Energy metabolism: glycolysis (ECAR) and oxidative phosphorylation (OCR) (M1 MdMs) | Energy metabolism: glycolysis (ECAR) and oxidative phosphorylation (OCR) (M2 MdMs) | Mutagenic potential (Ames test) [1] | Transport rate with Calu-3 cell barrier (Calu-3 cell barrier; 100 nM, 24 h) | Permeability / transport rate across Calu-3 cell barrier (in words) (Calu-3 cell barrier) | B cell activation (formation of plasma cells, proliferation, release of IgGs) (Human primary B cells; 0.5 nM) |
| --- | --- | --- | --- | --- | --- | --- | --- | --- | --- |
| CC(/C=C/C(C)=C/[C@@H]1Cc2nc(cs2)CCCCC(=O)O[C@@H](C)C/C(C)=C/C=C\C(=O)O1)=C\CN(C)C [DMDA, des-methyl des-amino pateamine A] | did not prevent B cell activation | did not reduce cell viability | No effect | had no effect on energy consumption | had no effect on energy consumption | negative in all Ames mutagenic assays | ~14% | exhibited low permeability |  |
| CC(/C=C/C(C)=C/[C@@H]1Cc2nc(cs2)[C@@H](C)C[C@@H](N)CC(=O)O[C@@H](C)C/C(C)=C/C=C\C(=O)O1)=C\CN(C)C [PatA, pateamine A] |  | did not reduce cell viability | IgA↓, IgG↓ | reduced glycolysis and oxidative phosphorylation | reduced glycolysis and oxidative phosphorylation | negative in all Ames mutagenic assays |  | no permeability was detected | showed similar effects to those of rapamycin |
